Test results published in ChEMBL document CHEMBL3045792, “Synthesis, antimicrobial activity, and molecular modeling of novel 4-(3-(4-benzylpiperazin-1-yl)propoxy)-7-methoxy-3-substituted phenyl-2H-chromen-2-one” (2013).
Calls of active or inactive are those of the source. The calls are words filed in the database; no cut-off is given here.

Assays:
Type in all cases: functional
Staphylococcus aureus [1] = assay: Antibacterial activity against Staphylococcus aureus assessed as growth inhibition at 600 ug/ml by NCCLS […] method; details: read-out: IZ
Bacillus pumilus [2] = assay: Antibacterial activity against Bacillus pumilus assessed as growth inhibition at 900 ug/ml by NCCLS […] method; details: read-out: IZ
Bacillus pumilus [3] = assay: Antibacterial activity against Bacillus pumilus assessed as growth inhibition at 600 ug/ml by NCCLS […] method; details: read-out: IZ
Priestia megaterium [4] = assay: Antibacterial activity against Bacillus megaterium assessed as growth inhibition at 900 ug/ml by NCCLS […] method; details: for zone of inhibition at 900 µg/mL: read-out: IZ
Priestia megaterium [5] = assay: Antibacterial activity against Bacillus megaterium assessed as growth inhibition at 600 ug/ml by NCCLS […] method; details: for zone of inhibition at 600 µg/mL: read-out: IZ
Bacillus subtilis [6] = assay: Antibacterial activity against Bacillus subtilis assessed as growth inhibition at 900 ug/ml by NCCLS […] method; details: read-out: IZ
Bacillus subtilis [7] = assay: Antibacterial activity against Bacillus subtilis assessed as growth inhibition at 600 ug/ml by NCCLS […] method; details: read-out: IZ
Klebsiella aerogenes [8] = assay: Antibacterial activity against Enterobacter aerogenes assessed as growth inhibition at 900 ug/ml by NCCLS […] method; details: read-out: IZ
Klebsiella aerogenes [9] = assay: Antibacterial activity against Enterobacter aerogenes assessed as growth inhibition at 600 ug/ml by NCCLS […] method; details: read-out: IZ
Klebsiella pneumoniae [10] = assay: Antibacterial activity against Klebsiella pneumoniae assessed as growth inhibition at 900 ug/ml by NCCLS […] method; details: read-out: IZ
Klebsiella pneumoniae [11] = assay: Antibacterial activity against Klebsiella pneumoniae assessed as growth inhibition at 600 ug/ml by NCCLS […] method; details: read-out: IZ
Proteus mirabilis [12] = assay: Antibacterial activity against Proteus mirabilis assessed as growth inhibition at 900 ug/ml by NCCLS […] method; details: read-out: IZ
Proteus mirabilis [13] = assay: Antibacterial activity against Proteus mirabilis assessed as growth inhibition at 600 ug/ml by NCCLS […] method; details: read-out: IZ
Proteus vulgaris [14] = assay: Antibacterial activity against Proteus vulgaris assessed as growth inhibition at 900 ug/ml by NCCLS […] method; details: read-out: IZ
Proteus vulgaris [15] = assay: Antibacterial activity against Proteus vulgaris assessed as growth inhibition at 600 ug/ml by NCCLS […] method; details: read-out: IZ
Escherichia coli [16] = assay: Antibacterial activity against Escherichia coli assessed as growth inhibition at 900 ug/ml by NCCLS […] method; details: for zone of inhibition at 900 µg/mL: read-out: IZ
Fusarium oxysporum [17] = assay: Antifungal activity against Fusarium oxysporum assessed as growth inhibition at 900 ug/ml
Fusarium oxysporum [18] = assay: Antifungal activity against Fusarium oxysporum assessed as growth inhibition at 600 ug/ml
Fusarium oxysporum [19] = assay: Antifungal activity against Fusarium oxysporum assessed as growth inhibition at 300 ug/ml
Candida albicans [20] = assay: Antifungal activity against Candida albicans assessed as growth inhibition at 1200 ug/ml; details: read-out: IZ
Candida albicans [21] = assay: Antifungal activity against Candida albicans assessed as growth inhibition at 900 ug/ml; details: read-out: IZ
Candida albicans [22] = assay: Antifungal activity against Candida albicans assessed as growth inhibition at 600 ug/ml; details: read-out: IZ
Candida albicans [23] = assay: Antifungal activity against Candida albicans assessed as growth inhibition at 300 ug/ml; details: read-out: IZ
Streptococcus pyogenes [24] = assay: Antibacterial activity against Streptococcus pyogenes assessed as growth inhibition at 600 ug/ml by NCCLS […] method; details: read-out: IZ
Streptococcus pyogenes [25] = assay: Antibacterial activity against Streptococcus pyogenes assessed as growth inhibition at 900 ug/ml by NCCLS […] method; details: read-out: IZ
Staphylococcus aureus [26] = assay: Antibacterial activity against Staphylococcus aureus assessed as growth inhibition at 900 ug/ml by NCCLS […] method; details: read-out: IZ
Escherichia coli [27] = assay: Antibacterial activity against Escherichia coli assessed as growth inhibition at 600 ug/ml by NCCLS […] method; details: for zone of inhibition at 600 µg/mL: read-out: IZ
Colletotrichum falcatum [28] = assay: Antifungal activity against Glomerella tucumanensis assessed as growth inhibition at 1200 ug/ml; details: for zone of inhibition at 1200 µg/mL: read-out: IZ
Colletotrichum falcatum [29] = assay: Antifungal activity against Glomerella tucumanensis assessed as growth inhibition at 900 ug/ml; details: for zone of inhibition at 900 µg/mL: read-out: IZ
Colletotrichum falcatum [30] = assay: Antifungal activity against Glomerella tucumanensis assessed as growth inhibition at 600 ug/ml; details: for zone of inhibition at 600 µg/mL: read-out: IZ
Colletotrichum falcatum [31] = assay: Antifungal activity against Glomerella tucumanensis assessed as growth inhibition at 300 ug/ml; details: for zone of inhibition at 300 µg/mL: read-out: IZ
Exserohilum rostratum [32] = assay: Antifungal activity against Setosphaeria rostrata assessed as growth inhibition at 1200 ug/ml; details: read-out: IZ
Exserohilum rostratum [33] = assay: Antifungal activity against Setosphaeria rostrata assessed as growth inhibition at 900 ug/ml; details: read-out: IZ
Exserohilum rostratum [34] = assay: Antifungal activity against Setosphaeria rostrata assessed as growth inhibition at 600 ug/ml; details: read-out: IZ
Exserohilum rostratum [35] = assay: Antifungal activity against Setosphaeria rostrata assessed as growth inhibition at 300 ug/ml; details: read-out: IZ
Fusarium oxysporum [36] = assay: Antifungal activity against Fusarium oxysporum assessed as growth inhibition at 1200 ug/ml

Row | Compound | zone of inhibition at 600 µg/mL (Staphylococcus aureus [1]) | zone of inhibition at 900 µg/mL (Bacillus pumilus [2]) | zone of inhibition at 600 µg/mL (Bacillus pumilus [3]) | zone of inhibition at 900 µg/mL (Bacillus subtilis [6]) | zone of inhibition at 600 µg/mL (Bacillus subtilis [7]) | zone of inhibition at 900 µg/mL (Klebsiella aerogenes [8]) | zone of inhibition at 600 µg/mL (Klebsiella aerogenes [9]) | zone of inhibition at 900 µg/mL (Klebsiella pneumoniae [10]) | zone of inhibition at 600 µg/mL (Klebsiella pneumoniae [11]) | zone of inhibition at 900 µg/mL (Proteus mirabilis [12]) | zone of inhibition at 600 µg/mL (Proteus mirabilis [13]) | zone of inhibition at 900 µg/mL (Proteus vulgaris [14]) | zone of inhibition at 600 µg/mL (Proteus vulgaris [15]) | zone of inhibition at 1200 µg/mL (Candida albicans [20]) | zone of inhibition at 900 µg/mL (Candida albicans [21]) | zone of inhibition at 600 µg/mL (Candida albicans [22]) | zone of inhibition at 300 µg/mL (Candida albicans [23]) | zone of inhibition at 600 µg/mL (Streptococcus pyogenes [24]) | zone of inhibition at 900 µg/mL (Streptococcus pyogenes [25]) | zone of inhibition at 900 µg/mL (Staphylococcus aureus [26]) | further results
1 | COc1ccc2c(OCCCN3CCN(Cc4ccc[nH]4)CC3)c(-c3ccccc3)c(=O)oc2c1 | 14.8 mm | 15.5 mm | 7.49 mm | 7.87 mm | 4.21 mm | 8.9 mm | 4.78 mm | 8.12 mm | 4.21 mm | 19.4 mm | 10.9 mm | 16 mm | 8.12 mm | 27 mm | 13.9 mm | 7.77 mm | 4.02 mm | 9.1 mm | 18 mm | 25.3 mm | zone of inhibition at 900 µg/mL (Priestia megaterium [4]): 12.4 mm; zone of inhibition at 600 µg/mL (Priestia megaterium [5]): 6.32 mm; zone of inhibition at 900 µg/mL (Escherichia coli [16]): 6.04 mm; zone of inhibition at 900 µg/mL (Fusarium oxysporum [17]; read-out: IZ): 20 mm; zone of inhibition at 600 µg/mL (Fusarium oxysporum [18]; read-out: IZ): 10.2 mm; zone of inhibition at 300 µg/mL (Fusarium oxysporum [19]; read-out: IZ): 5.34 mm; zone of inhibition at 600 µg/mL (Escherichia coli [27]): 3.22 mm; zone of inhibition at 1200 µg/mL (Colletotrichum falcatum [28]): 19.6 mm; zone of inhibition at 900 µg/mL (Colletotrichum falcatum [29]): 10.1 mm; zone of inhibition at 600 µg/mL (Colletotrichum falcatum [30]): 5.84 mm; zone of inhibition at 300 µg/mL (Colletotrichum falcatum [31]): 3.02 mm; zone of inhibition at 1200 µg/mL (Exserohilum rostratum [32]): 25.3 mm; zone of inhibition at 900 µg/mL (Exserohilum rostratum [33]): 13.9 mm; zone of inhibition at 600 µg/mL (Exserohilum rostratum [34]): 7.01 mm; zone of inhibition at 300 µg/mL (Exserohilum rostratum [35]): 3.54 mm; zone of inhibition at 1200 µg/mL (Fusarium oxysporum [36]; read-out: IZ): 31.6 mm
2 | COc1ccc2c(OCCCN3CCN(Cc4ccccc4)CC3)c(-c3ccccc3)c(=O)oc2c1 | 7.89 mm | 4.21 mm | 2.27 mm | 12 mm | 6.56 mm | 7.53 mm | 3.8 mm | 4.98 mm | 2.56 mm | 11.3 mm | 5.55 mm | 12.8 mm | 6.54 mm | 22.3 mm | 12 mm | 5.43 mm | 2.87 mm | 6.54 mm | 11.9 mm | 11.2 mm | growth inhibition (GI) (Priestia megaterium [4]): inactive; growth inhibition (GI) (Priestia megaterium [5]): inactive; zone of inhibition at 900 µg/mL (Escherichia coli [16]): 5.76 mm; growth inhibition (GI) (Fusarium oxysporum [17]): inactive; growth inhibition (GI) (Fusarium oxysporum [18]): inactive; growth inhibition (GI) (Fusarium oxysporum [19]): inactive; zone of inhibition at 600 µg/mL (Escherichia coli [27]): 2.98 mm; growth inhibition (GI) (Colletotrichum falcatum [28]): inactive; growth inhibition (GI) (Colletotrichum falcatum [29]): inactive; growth inhibition (GI) (Colletotrichum falcatum [30]): inactive; growth inhibition (GI) (Colletotrichum falcatum [31]): inactive; zone of inhibition at 1200 µg/mL (Exserohilum rostratum [32]): 24.6 mm; zone of inhibition at 900 µg/mL (Exserohilum rostratum [33]): 15.8 mm; zone of inhibition at 600 µg/mL (Exserohilum rostratum [34]): 8.56 mm; zone of inhibition at 300 µg/mL (Exserohilum rostratum [35]): 4.25 mm; growth inhibition (GI) (Fusarium oxysporum [36]): inactive
3 | COc1ccc(CN2CCN(CCCOc3c(-c4ccccc4)c(=O)oc4cc(OC)ccc34)CC2)cc1 | 3 mm | 10.5 mm | 5.25 mm | 8.9 mm | 4.28 mm | 8.9 mm | 4.24 mm | 10.1 mm | 5.48 mm | 10.5 mm | 5.25 mm | 4.25 mm | 2 mm | 23.2 mm | 11 mm | 5.62 mm | 2.76 mm | 2.08 mm | 4.19 mm | 6.25 mm | zone of inhibition at 900 µg/mL (Priestia megaterium [4]): 8.19 mm; zone of inhibition at 600 µg/mL (Priestia megaterium [5]): 4.26 mm; growth inhibition (GI) (Escherichia coli [16]): inactive; growth inhibition (GI) (Fusarium oxysporum [17]): inactive; growth inhibition (GI) (Fusarium oxysporum [18]): inactive; growth inhibition (GI) (Fusarium oxysporum [19]): inactive; growth inhibition (GI) (Escherichia coli [27]): inactive; zone of inhibition at 1200 µg/mL (Colletotrichum falcatum [28]): 31.8 mm; zone of inhibition at 900 µg/mL (Colletotrichum falcatum [29]): 17 mm; zone of inhibition at 600 µg/mL (Colletotrichum falcatum [30]): 8.62 mm; zone of inhibition at 300 µg/mL (Colletotrichum falcatum [31]): 4.08 mm; zone of inhibition at 1200 µg/mL (Exserohilum rostratum [32]): 28.8 mm; zone of inhibition at 900 µg/mL (Exserohilum rostratum [33]): 15 mm; zone of inhibition at 600 µg/mL (Exserohilum rostratum [34]): 7.56 mm; zone of inhibition at 300 µg/mL (Exserohilum rostratum [35]): 3.8 mm; growth inhibition (GI) (Fusarium oxysporum [36]): inactive
